SMILES strings stand for the structures.

For assay [1], the system named is CCl4-induced hepatic fibrosis in mice. In words: CCl4-induced hepatic fibrosis mice regression model. Conditions: 10 mg/kg for 4 weeks without CCl4 after 8 weeks CCl4 induction. In kind it is in vivo, male C57BL/6J mice. An excerpt: In male C57BL/6J mice, liver fibrosis was induced by carbon tetrachloride (CCl4). The mice were given peritoneal injection of carbon tetrachloride for 4 or 8 weeks every two weeks.
The mice liver samples were stored in 10% formaldehyde, dehydrated with gradient alcohol, embedded in paraffin blocks, sectioned to a thickness of 3 μm, placed on glass slides, and stained with Picrosirius Red Stain kit (ScyTek, USA), following the manufacturer's instructions. The severity of liver fibrosis was graded according to the Ishak fibrosis score. Quantitative collagen-positive area (qCPA) was determined by densitometry via ImageJ software. Hepatic hydroxyproline concentrations were measured by the hydroxyproline assay kit (Biovision, USA), following the manufacturer's instructions Immunohistochemistry was performed by the Leica BOND-MAX automatic chromatograph (Leica Biosystems, Germany), following the manufacturer's instructions.

Assay [2] has as its system TGF-β, PDGFR and STAT3 pathways in LX2 cells. In words: Western blot of signalling proteins in LX2 cells. The assay is classed as cell-based, human. How it is done:
Rat immortal hepatic stellate cell line HSC-T6 and LX2 human hepatic stellate cell line were provided by Professor Scott Friedman of Mount Sinai Hospital in New York, USA. The primary mouse HSCs were obtained via the way: after intubating the hepatic portal vein of the mouse, the cells were perfused with […] and ethylene glycol bis-aminoethyl ether tetraacetic acid (EGTA) buffer in situ, and then collagenase was injected to digest the liver tissue, and then the primary mouse HSCs were isolated by Histodnz gradient. HSC-T6 cells were cultured in Waymouth medium; LX2 cells and primary mouse HSCs were cultured in Dulbecco's Modified Eagle Medium (DMEM) containing 10% fetal bovine serum (FBS), 100 μg/mL penicillin, 100 μg/mL streptomycin, and 2 mM L-glutamine HSC-T6 cells, LX2 cells and primary mouse HSCs were cultured in a humidified incubator containing 5% carbon dioxide at 37° C. After adding the FBS, the resting HSC is started. […] Whole-cell extracts were obtained via RIPA buffer (Millipore, USA) and protein concentrations were quantified via a BCA protein assay kit (Thermo Fisher Scientific, USA). 20 or 25 μg of protein was added to various percentages of SDS-sodium dodecyl sulfate-acrylamide gel and blotted onto a polyvinylidene fluoride (PVDF) membrane. […] Proteins were detected by Immobilon Western Chemiluminescent HRP substrate (Millipore, USA) or ECL detection system (UVP Corporation, USA). […] Plasmids encoding the human wild-type SHP-1 and SHP-1 mutant, in which the N-SH2 domain was […] was changed into an […]) were cloned into the pCMV6-entry vector with myc-tag. These mutants were confirmed through DNA sequencing. […] (Chicago, Ill., USA).
On the technique in general: Immunoblotting shows a protein as a band on a membrane.

Consider `N#Cc1ccc(Oc2cccc(NC(=O)Nc3ccc(Cl)c(C(F)(F)F)c3)c2)cc1` [1-[4-chloro-3-(trifluoromethyl)phenyl]-3-[3-(4-cyanophenoxy)phenyl]urea], for which the “qCPA (quantitative collagen-positive area)” value in assay [1] (FIG. 12G) was “significantly decreased”. Besides, in assay [1] (FIG. 12H), the Ishak fibrosis score entry is recorded as “significantly decreased”. Besides, the “p-STAT3, ectopic expression of the vector control and wild-type SHP-1” value in assay [2] (5 μM, 24 hours, FIG. 17D, 17E) is recorded as “downregulated”. Moreover, in assay [2] (10 μM for 4 hours, then PDGF-BB 100 ng/mL 10 minutes, FIG. 14E), the “p-PDGFR and p-Akt in the PDGFR pathway” value is recorded as “downregulated”. For the same compound, in assay [2] (10 μM for 4 hours, then TGF-β1 10 ng/mL 20 minutes, FIG. 14D), the “p-Smad2 and p-Smad3 of the TGF-β pathway” value is on record as “downregulated”. Moreover, the “downregulation of p-STAT3 and cyclin D1, compared with sorafenib” value in assay [2] (FIG. 15A) is reported as “more significant dose-escalation effects on the downregulation”.

For the origin of these results see patent US10993923B2, “Method for ameliorating fibrosis using 1-[4-chloro-3-(trifluoromethyl)phenyl]-3-[3-(4-cyanophenoxy)phenyl]urea” (priority 2016, dated 2021).
